Counter-ions that a name gives are not always drawn.
What was measured:
[1] = target: T1, human M3 muscarinic receptor (Homo sapiens, UniProt P20309); test: Inhibitory effect on methacholine-induced calcium influx, FLIPR assay, CHO-K1 cells stably expressing the human M3 muscarinic receptor; format: cell-based; conditions: inhibition of calcium influx induced by methacholine
T1 construct: expressed in transfected cells; host or cells: CHO-K1
Method in brief: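 Dye-loaded hM3 CHO-K1 cells were preincubated 180 s with compound solutions prepared at 10 two-fold concentrations (0.01–1000 nM). A 30 nM methacholine solution was then added. Fluorescence was traced for 170 s; max−min signal gave % inhibition against agonist and no-agonist controls, and IC50 came from a four-parameter logistic fit.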

[2] = target: T2, human β2 adrenergic receptor (Homo sapiens, UniProt P07550); test: Whole-cell cAMP Flashplate assay using CHO-K1 cells stably expressing human β2 adrenergic receptor; format: cell-based; conditions: cAMP production
T2 construct: expressed in transfected cells; host or cells: CHO-K1
T2 sequence (P07550 whole entry): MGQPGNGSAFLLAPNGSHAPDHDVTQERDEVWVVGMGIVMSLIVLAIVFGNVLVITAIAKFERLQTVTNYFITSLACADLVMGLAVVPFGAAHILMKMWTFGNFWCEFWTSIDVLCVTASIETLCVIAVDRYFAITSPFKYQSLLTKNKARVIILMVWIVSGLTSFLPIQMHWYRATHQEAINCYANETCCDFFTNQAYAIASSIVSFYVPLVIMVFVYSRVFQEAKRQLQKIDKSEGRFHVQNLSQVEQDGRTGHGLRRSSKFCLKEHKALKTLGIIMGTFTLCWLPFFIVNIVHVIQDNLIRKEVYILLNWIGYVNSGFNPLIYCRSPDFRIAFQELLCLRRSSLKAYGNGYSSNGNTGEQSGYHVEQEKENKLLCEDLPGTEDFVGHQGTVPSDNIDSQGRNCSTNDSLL

T1 sequence (P20309 whole entry): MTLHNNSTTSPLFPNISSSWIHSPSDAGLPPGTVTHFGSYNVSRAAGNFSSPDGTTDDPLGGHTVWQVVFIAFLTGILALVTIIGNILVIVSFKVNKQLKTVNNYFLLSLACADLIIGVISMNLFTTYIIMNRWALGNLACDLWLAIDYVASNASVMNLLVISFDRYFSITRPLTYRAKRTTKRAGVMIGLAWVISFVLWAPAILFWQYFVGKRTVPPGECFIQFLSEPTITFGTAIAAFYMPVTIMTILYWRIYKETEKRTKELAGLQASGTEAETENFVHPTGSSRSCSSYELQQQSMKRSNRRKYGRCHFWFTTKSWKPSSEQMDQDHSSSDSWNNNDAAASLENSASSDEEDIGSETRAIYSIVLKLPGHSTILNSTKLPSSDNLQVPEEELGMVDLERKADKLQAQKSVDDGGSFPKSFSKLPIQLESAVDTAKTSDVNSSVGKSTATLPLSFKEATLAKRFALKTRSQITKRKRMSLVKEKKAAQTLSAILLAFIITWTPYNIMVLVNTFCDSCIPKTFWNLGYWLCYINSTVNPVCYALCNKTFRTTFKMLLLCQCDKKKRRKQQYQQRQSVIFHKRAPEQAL

| SMILES | IC50 [1] [µM] | EC50 [2] [µM] |
| --- | --- | --- |
| COc1cc(CNC[C@H](O)c2ccc(O)c3[nH]c(=O)ccc23)ccc1NC(=O)CCCc1ccc(-c2ccccc2)c(NC(=O)OC2C[C@@H]3[C@H]4O[C@H]4[C@H](C2)[N+]3(C)C)c1 (stereo partly drawn) [Example 38, (1R,2R,4S,5S,7S)-7-({[5-(3-{[4-({[(2R)-2-hydroxy-2-(8-hydroxy-2-oxo-1,2-dihydroquinolin-5-yl)ethyl]amino}methyl)-2-methoxyphenyl]carbamoyl}propyl)-2-phenylphenyl]carbamoyl}oxy)-9,9-dimethyl-3-oxa-9-azatricyclo[3.3.1.0^2,4]nonan-9-ium trifluoroacetate] | 0.0156 | 0.0106 |
| COc1cc(NC(=O)CCCc2ccc(-c3ccccc3)c(NC(=O)O[C@@H]3C[C@@H]4[C@H]5O[C@H]5[C@H](C3)[N+]4(C)C)c2)c(Cl)cc1CNC[C@H](O)c1ccc(O)c2[nH]c(=O)ccc12 [Example 34, (1R,2R,4S,5S,7S)-7-({[5-(3-{[2-chloro-4-({[(2R)-2-hydroxy-2-(8-hydroxy-2-oxo-1,2-dihydroquinolin-5-yl)ethyl]amino}methyl)-5-methoxyphenyl]carbamoyl}propyl)-2-phenylphenyl]carbamoyl}oxy)-9,9-dimethyl-3-oxa-9-azatricyclo[3.3.1.0^2,4]nonan-9-ium trifluoroacetate] | 0.022 | 0.0012 |
| Cc1cc(CNC[C@H](O)c2ccc(O)c3[nH]c(=O)ccc23)ccc1NC(=O)CCCc1ccc(-c2ccccc2)c(NC(=O)O[C@@H]2C[C@@H]3[C@H]4O[C@H]4[C@H](C2)[N+]3(C)C)c1 [Example 39, (1R,2R,4S,5S,7S)-7-({[5-(3-{[4-({[(2R)-2-hydroxy-2-(8-hydroxy-2-oxo-1,2-dihydroquinolin-5-yl)ethyl]amino}methyl)-2-methylphenyl]carbamoyl}propyl)-2-phenylphenyl]carbamoyl}oxy)-9,9-dimethyl-3-oxa-9-azatricyclo[3.3.1.0^2,4]nonan-9-ium trifluoroacetate] | 0.016 | 0.004 |

The remaining lines, values ahead:

| IC50 [1] [µM] | EC50 [2] [µM] | SMILES |
| --- | --- | --- |
| 0.0447 | 0.016 | C[N+]1(C)CCC(OC(=O)Nc2ccc(CCC(=O)Nc3ccc(CNC[C@H](O)c4ccc(O)c5[nH]c(=O)ccc45)cc3)cc2-c2ccccc2)CC1 [Example 69, 4-({[4-(2-{[4-({[(2R)-2-hydroxy-2-(8-hydroxy-2-oxo-1,2-dihydroquinolin-5-yl)ethyl]amino}methyl)phenyl]carbamoyl}ethyl)-2-phenylphenyl]carbamoyl}oxy)-1,1-dimethylpiperidin-1-ium trifluoroacetate] |
| 0.0328 | 0.0004 | COc1cc(NC(=O)CCCCc2ccc(-c3ccccc3)c(NC(=O)OC3C[C@@H]4[C@H]5O[C@H]5[C@H](C3)[N+]4(C)C)c2)c(Cl)cc1CNC[C@H](O)c1ccc(O)c2[nH]c(=O)ccc12 (stereo partly drawn) [Example 52, (1R,2R,4S,5S,7S)-7-({[5-(4-{[2-chloro-4-({[(2R)-2-hydroxy-2-(8-hydroxy-2-oxo-1,2-dihydroquinolin-5-yl)ethyl]amino}methyl)-5-methoxyphenyl]carbamoyl}butyl)-2-phenylphenyl]carbamoyl}oxy)-9,9-dimethyl-3-oxa-9-azatricyclo[3.3.1.0^2,4]nonan-9-ium trifluoro acetate] |
| 0.0165 | 0.0019 | CCOc1cc(NC(=O)CCc2ccc(-c3ccccc3)c(NC(=O)OC3C[C@@H]4[C@H]5O[C@H]5[C@H](C3)[N+]4(C)C)c2)ccc1CNC[C@H](O)c1ccc(O)c2[nH]c(=O)ccc12 (stereo partly drawn) [Example 47, (1R,2R,4S,5S,7S)-7-({[5-(2-{[4-({[(2R)-2-hydroxy-2-(8-hydroxy-2-oxo-1,2-dihydroquinolin-5-yl)ethyl]amino}methyl)-3-ethoxyphenyl]carbamoyl}ethyl)-2-phenylphenyl]carbamoyl}oxy)-9,9-dimethyl-3-oxa-9-azatricyclo[3.3.1.0^2,4]nonan-9-ium trifluoroacetate] |

From patent US9072734B2, “Quaternary ammonium salt compounds” (Teijin Pharma Limited, priority 2009, dated 2015)
